Measured values as given in patent publication US10537601B2, “Method of isolating anti-viral ingredients from Baphicacanthus cusia, compositions comprising them and their medical use” (priority 2016, dated 2020).
Read-outs that look alike come from different tables or passages of the source.

Tested on: influenza virus A/PR/8/34 (H1N1)
Test: organism not typed
Format: cell-based
Conditions: read-out: IC50 (anti-viral activity, 50% inhibitory concentration)
[1] = MDCK cells infected with 100TCID50 of influenza A/PR/8/34 (H1N1), treatment for 48 h, Reed-Muench method

Compound | IC50 [1] [µM] | IC50 (MDCK, 48 h) [µM]
O=C1Nc2ccccc2O[C@@H]1O [Compound of Formula 5, 2-hydroxy-1,4-benzoxazin-3-one] | > 200 | –
O=Cc1c[nH]c2ccccc12 [Compound of Formula 7, 1H-indole-3-carbaldehyde] | 42 | –
O=C1COc2ccccc2N1 [Compound of Formula 9, 2H-1,4-benzoxazin-3-one] | > 200 | –
C=C(CO)[C@@H]1CC[C@]2(C)CC[C@]3(C)[C@H](CC[C@@H]4[C@@]5(C)CC[C@H](O)C(C)(C)C5CC[C@]43C)[C@@H]12 (stereo partly drawn) [Compound of Formula 19, lup-20(29)-en-3β, 30-diol] | – | 33.6
NC(=O)c1ncn([C@@H]2O[C@H](CO)[C@@H](O)[C@H]2O)n1 [ribavirin, reference compound] | 30.4 | –
